US10227349B2, “Pyrazolo[1,5-a]pyrimidine compound” (Eisai R&D Management Co., Ltd., priority 2016, dated 2019)

Legend:
PAR2 [1] = target: T1, PAR2 (Homo sapiens, UniProt P55085); assay: Intracellular calcium concentration measurement (trypsin-induced calcium elevation, FDSS6000); format: cell-based; settings: HEK293 cells, trypsin 5 U/mL as agonist, test compound added 30 min before measurement; read-out: Inhibitory activity on intracellular calcium elevation (IC50 (nM))
T1 construct: Human embryonic kidney cell line HEK293 cells cultured using DMEM culture medium; endogenous in cells; host or cells: HEK293
T1 sequence (P55085 26-397): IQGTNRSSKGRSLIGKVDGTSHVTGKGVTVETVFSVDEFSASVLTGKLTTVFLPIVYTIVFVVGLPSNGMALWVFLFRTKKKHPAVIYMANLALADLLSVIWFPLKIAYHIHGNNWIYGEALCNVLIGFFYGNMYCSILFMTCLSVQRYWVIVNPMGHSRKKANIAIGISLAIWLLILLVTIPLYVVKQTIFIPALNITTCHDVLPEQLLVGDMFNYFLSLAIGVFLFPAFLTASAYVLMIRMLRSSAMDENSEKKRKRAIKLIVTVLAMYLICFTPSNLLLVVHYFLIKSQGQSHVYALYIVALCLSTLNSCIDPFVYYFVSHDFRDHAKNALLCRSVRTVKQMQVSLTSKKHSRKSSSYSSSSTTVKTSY
Excerpt: In the present specification, examples of the measurement method for the PAR2 inhibitory activity include measurement method for a concentration elevation of intracellular calcium; measurement method for a production increase of intracellular inositol trisphosphate; measurement method for an increase in intracellular protein phosphorylation by protein kinase C and MAP kinase; and measurement method for a production amount or a release amount of inflammation-related physiologically active substances such as cytokine, chemokine, prostaglandin and nitric monoxide. Examples of the measurement method for an elevation of intracellular calcium concentration include a method wherein a calcium-binding fluorescent probe is allowed to be incorporated in advance into a cultured cell line or an animal-derived isolated cell having PAR2, or a cell in which PAR2 is artificially expressed, a protease having the PAR2 activity function such as trypsin or a PAR2 agonist (synthetic peptides such as SLIGKV-NH2 (SEQ ID NO: 1) and SLIGRL-NH2 (SEQ ID NO: 2) is added to activate PAR2 whereby fluctuating intracellular calcium concentrations are detected as changes in the fluorescent signal. Alternatively, it is also possible to measure an intracellular calcium concentration by determining the quantity of a fluorescence intensity produced in proportion to the calcium concentration using a calcium-binding luminescent protein overexpressing cell line such as Aequorin. Specifically, examples include the methods described in Test Examples of the present specification.
Human embryonic kidney cell line HEK293 cells cultured using DMEM culture medium (Invitrogen) with 3% fetal bovine serum (3% FBS)-added was prepared to have a concentration of 2×10^5 cells/mL, and plated in a type I collagen-coated 384-well black plate (clear bottom) (Greiner) so as to be 25 μL/well and cultured in a CO2 incubator overnight. FLIPR Calcium Assay Kit (Molecular Devices) prepared with Hanks-20 mM Hepes buffer (pH 7.4) was added to the cells so as to be 25 μL/well and cultured in the CO2 incubator for 1 hour. Trypsin (SIGMA-ALDRICH, catalog number: T8816, Enzyme Commission Number 3.4.21.4) prepared so as to be 5 U/mL as final concentration (BAEE unit) with Hanks-20 mM Hepes buffer (pH 7.4) was added to a 384-well deep well polypropylene plate (Greiner) to be an agonist reagent plate. Thirty minutes before the measurement using FDSS6000 (Hamamatsu Photonics K.K.), a test compound prepared with Hanks-20 mM Hepes buffer (pH 7.4) was added to the cell so as to be 8 μL/well. The cell plate to which the test compound was added and the reagent plate were set on FDSS6000, 22 μL/well of the agonist solution was added from the reagent plate, and the change in intracellular calcium concentration was measured with a CCD camera. The measurement was carried out at 37° C. for 120 seconds and the addition of reagent from the reagent plate to the cell plate was carried out using a built-in 384-well automatic dispenser of FDSS6000.
Note that Reference Example 1 in Table 3 is the compound represented by formula (XIX) synthesized in the above Reference Example 1 (hereinafter, also referred to as Compound (XIX)). Additionally, the “Comparative Compound” in Table 3 is the compound described in Patent Literature 4 represented by the following formula (XX) (I-343; hereinafter, also referred to as Compound (XX)).

PAR2 [2] = target: T2, PAR2 (Mus musculus, UniProt P55086); assay: Measurement of PAR2 agonist (SLIGRL-NH2)-induced salivation in mouse; format: in vivo; settings: C57BL/6J male mice, 0.3 mg/mL solution 10 mL/kg orally, 60 min before SLIGRL-NH2 i.p., saliva collected 10 min
T2 construct: orally administered to C57BL/6J male mice (Charles River), 6-10 weeks of age; tissue Charles River; host or cells: Living C57BL/6J male mice (in vivo; saliva secretion)
T2 sequence (P55086 26-399): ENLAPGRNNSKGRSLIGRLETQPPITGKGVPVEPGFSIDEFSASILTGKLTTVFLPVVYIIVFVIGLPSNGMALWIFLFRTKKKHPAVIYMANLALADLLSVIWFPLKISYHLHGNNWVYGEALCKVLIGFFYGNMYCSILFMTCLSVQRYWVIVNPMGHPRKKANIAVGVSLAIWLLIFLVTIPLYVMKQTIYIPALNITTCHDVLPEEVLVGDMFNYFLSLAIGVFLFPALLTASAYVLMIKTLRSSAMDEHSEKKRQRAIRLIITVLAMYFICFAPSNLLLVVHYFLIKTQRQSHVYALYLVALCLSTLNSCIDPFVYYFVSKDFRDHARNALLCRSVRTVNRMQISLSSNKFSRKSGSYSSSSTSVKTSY
Protocol: The test compound was added to a 0.5% carboxymethyl cellulose solution to which 2% DMSO was added, so as to have the final concentration of 0.3 mg/mL, thereby preparing an administration solution containing the test compound. The administration solution containing the test compound (10 mL/kg) was orally administered to C57BL/6J male mice (Charles River), 6-10 weeks of age, using an oral sonde and a syringe. Forty-five minutes after the administration of the test compound, 10 mL/kg of a 20% (w/v) urethane solution was intraperitoneal administered to the mice which were then anesthetized. Sixty minutes after the administration of the test compound, 10 mL/kg of a 0.1 mg/mL SLIGRL-NH2 (SEQ ID NO: 2) solution was intraperitoneally administered as the PAR2 agonist and a cotton ball was immediately placed in the oral cavity of the mouse to collect the saliva. Ten minutes after the administration of the PAR2 agonist, the cotton ball was removed and weighed to measure the amount of saliva secreted.
Note that Reference Example 1 in Table 4 is Compound (XIX). Additionally, Comparative Compound in Table 4 is Compound (XX).

[3] = test system: OXA-induced enteritis in BALB/c male mice; assay: Model mouse for enteritis (OXA-induced, bowel length); format: in vivo; settings: po, 48 h, 0.1 mg/mL solution 10 mL/kg orally twice (1 hour before and day after OXA induction), length of colon and rectum two days after induction, read-out: Inhibitory activity on bowel shortening (%)
Protocol: Generally, the bowel length is known to be shorter during enteritis (Maxwell, J. R. et al. Curr. Protoc. Pharmacol. Chapter 5: Unit 5.58, 2009). The bowel length in an enteritis model was measured to evaluate the effect of the test compound.
The test compound was added to a 0.5% carboxymethyl cellulose solution so as to have a final concentration of 0.1 mg/mL, thereby preparing an administration solution containing the test compound. Hapten used was 4-ethoxymethylene-2-phenyloxazol-5-one (OXA, SIGMA-ALDRICH).
One hundred (100) μL of a solution of OXA diluted to 0.3% with ethanol was applied to the shaved abdominal region of BALB/c male mice (Charles River), 6-10 weeks of age, to create the sensitization. Five days after the sensitization, OXA was intrarectally administered to induce an enteritis reaction. More specifically, a syringe equipped with a sonde for oral administration was inserted into the anus of the mouse anesthetized by the inhalation of isoflurane at a concentration of 4-5% and 50 μL of the OXA solution adjusted to 1% with a solvent of 50% ethanol/50% distilled water was administered into the rectum.
One hour before and on the day following the induction of enteritis, the administration solution containing the test compound (10 mL/kg) was orally administered twice in total to the mice. Two days after the induction of enteritis, the mice were euthanized by cervical dislocation and subsequently the cecum to the anus was collected to measure the combined length of the colon and the rectum using a ruler, thereby evaluating the action of the test compound.
Note that Reference Example 1 in Table 6 is Compound (XIX).

SMILES	IC50 (PAR2 [1])	Inhibitory activity on the PAR2-dependent saliva secretion (%) (PAR2 [2])	inhibition in vivo at 100 µg/mL, 1 mg/kg [3]
CO[C@H]1CN(C(=O)c2cc3nc(-c4ccc(F)c(Cl)c4)cc(N(C)c4c(C)cccc4C)n3n2)CC[C@H]1CC(=O)O (relative stereo) [Example 4, 2-((3R*,4S*)-1-(5-(3-chloro-4-fluorophenyl)-7-((2,6-dimethylphenyl)(methyl)amino)pyrazolo[1,5-a]pyrimidine-2-carbonyl)-3-methoxypiperidin-4-yl)acetic acid]	7.32 nM	87.1%	–
Cc1cccc(C)c1N(C)c1cc(-c2cc(F)c(F)c(F)c2)nc2cc(C(=O)N3CC[C@@H](CC(=O)O)[C@@H](F)C3)nn12 (relative stereo) [Example 1, 2-((3R*,4S*)-1-(7-((2,6-dimethylphenyl)(methyl)amino)-5-(3,4,5-trifluorophenyl)pyrazolo[1,5-a]pyrimidine-2-carbonyl)-3-fluoropiperidin-4-yl)acetic acid]	2.57 nM	91.5%	60.4%
CCCN(c1cc(-c2cc(F)c(Cl)c(F)c2)nc2cc(C(=O)N3CC[C@@H](CC(=O)O)[C@@H](C)C3)nn12)C(C)C (relative stereo) [Example 18, 2-((3R*,4S*)-1-(5-(4-chloro-3,5-difluorophenyl)-7-(isopropyl(propyl)amino)pyrazolo[1,5-a]pyrimidine-2-carbonyl)-3-methylpiperidin-4-yl)acetic acid]	7.38 nM	95.1%	–
Cc1cccc(C)c1N(C)c1cc(C2CCC(C)(C)CC2)nc2cc(C(=O)N3CC[C@@H](CC(=O)O)[C@@H](F)C3)nn12 (relative stereo) [Example 3, 2-((3R*,4S*)-1-(5-(4,4-dimethylcyclohexyl)-7-((2,6-dimethylphenyl)(methyl)amino)pyrazolo[1,5-a]pyrimidine-2-carbonyl)-3-fluoropiperidin-4-yl) acetic acid]	8.73 nM	86.7%	–
CC(C)CN(c1cc(-c2cc(F)c(F)c(F)c2)nc2cc(C(=O)N(C)[C@H](C)CC(=O)O)nn12)[C@H](C)C(C)C [Example 9, (R)-3-(7-(isobutyl((R)-3-methylbutan-2-yl)amino)-N-methyl-5-(3,4,5-trifluorophenyl)pyrazolo[1,5-a]pyrimidine-2-carboxamide)butanoic acid]	4.9 nM	96.0%	–
CN(c1ccccc1Cl)c1cc(-c2cc(F)c(Cl)c(F)c2)nc2cc(C(=O)N3CC[C@@H](CC(=O)O)[C@@H](F)C3)nn12 (relative stereo) [Example 14, 2-((3R*,4S*)-1-(5-(4-chloro-3,5-difluorophenyl)-7-((2-chlorophenyl)(methyl)amino)pyrazolo[1,5-a]pyrimidine-2-carbonyl)-3-fluoropiperidin-4-yl)acetic acid]	5.08 nM	92.5%	–
Cc1n[nH]c(C(=O)N2CCN(C(=O)c3cn4nc(-c5ccc(F)cc5)cc(C(C)(C)C)c4n3)C(C)(C)C2)n1 [Comparative Compound, reference compound]	24.2 nM	98.0%	–
CN(c1c(F)cccc1Cl)c1cc(-c2cc(F)c(F)c(F)c2)nc2cc(C(=O)N3CCC(CC(=O)O)CC3)nn12 [Example 17, 2-(1-(7-((2-chloro-6-fluorophenyl)(methyl)amino)-5-(3,4,5-trifluorophenyl)pyrazolo[1,5-a]pyrimidine-2-carbonyl)piperidin-4-yl)acetic acid]	3.27 nM	94.9%	–
CO[C@H]1CN(C(=O)c2cc3nc(-c4ccc(Cl)c(F)c4)cc(N(C)c4c(C)cccc4Cl)n3n2)CC[C@H]1CC(=O)O (relative stereo) [Example 11, 2-((3R*,4S*)-1-(5-(4-chloro-3-fluorophenyl)-7-((2-chloro-6-methylphenyl)(methyl)amino)pyrazolo[1,5-a]pyrimidine-2-carbonyl)-3-methoxypiperidin-4-yl)acetic acid]	6.88 nM	97.8%	–
CO[C@H]1CN(C(=O)c2cc3nc(-c4cc(F)c(Cl)c(F)c4)cc(N(C)c4c(C)cccc4Cl)n3n2)CC[C@H]1CC(=O)O (relative stereo) [Example 12, 2-((3R*,4S*)-1-(5-(4-chloro-3,5-difluorophenyl)-7-((2-chloro-6-methylphenyl)(methyl)amino)pyrazolo[1,5-a]pyrimidine-2-carbonyl)-3-methoxypiperidin-4-yl)acetic acid]	4.77 nM	98.8%	–
